# Like-named read-outs stand apart in the source and are kept apart here.
# Legend:
# [1] = system: W2; experiment: Cross-resistance EC50 assay, W2 parent; type: cell-based, Plasmodium falciparum; details: Plasmodium falciparum, 48 h, read-out: W2F6 (PARENT) Average EC50
# From the text: (§1) Multidrug resistance alleles, including mutations in P. falciparum chloroquine resistance transporter (pfcrt) and P. falciparum multi-drug resistance transporter 1 (pfmdr1) are very common in field isolates. Therefore, we sought to assess the degree to which pre-existing resistance alleles would contribute to a loss of potency for this diverse collection of small molecule compounds. Fifteen clones derived from three main parent lines were chosen to maximize diversity in mutated pathways and genetic backgrounds, thus representing the variety of resistance seen in the field: 3D7 (ref. [23]), W2 (ref. [24]) or Dd2 (ref. [25]). The 3D7 line originates from the clone of a Netherlands clinical isolate strain[23][26] and is generally considered to be drug sensitive, though it does convey resistance to sulfadoxine. Conversely, W2 (ref. [24], [27]) and Dd2 (ref. [25]) are multi-drug-resistant lines originating from the Indochina III/CDC isolate, which contain point mutations in pfcrt as well as amplifications in pfmdr1 and GTP cyclohydrolase.
# (§2) To evaluate potential overlapping activity against known antimalarial drug targets, we performed dose-response studies with each compound against our assembled set of drug-resistant lines and their corresponding parents, in an asexual blood stage proliferation assay (Table 1). Comparisons were made to the drug-sensitive strain 3D7 when a parent was unavailable (TM90C2A, W2 and Dd2). As laboratories conducted EC50 assays with different strains and protocols, all comparisons were made between assays from the same laboratory and under the same assay conditions. Compounds displaying >5-fold EC50 shifts relative to the parent or sensitive strain were flagged as having potentially non-novel targets. Average fold shifts per strain ranged from 0.82 to 2.34, with a median of 1.23 indicating there was not common resistance to any one resistant clone. No resistance patterns were observed when classifying the compounds based on chemical structure, but this was not surprising given the diversity of compounds chosen. On the other hand, given that these confirmed compounds were derived from larger unconfirmed hit lists to which some filtration criteria may have been applied (for example, elimination of obvious dihydrofolate reductase inhibitors[32]), some[10][11][12][13] pre-existing bias may exist in the set.
# (§3) The 48-h assay was carried out in a 96-well format following standard methods using the ^3H-hypoxanthine incorporation assay. The raw EC50 values corresponding to this assay can be found in Supplementary Data 3. Briefly, this assay relies on the parasite incorporation of labelled hypoxanthine that is proportional to P. falciparum growth. A culture of parasitized RBCs (0.5% parasitemia with a percentage of ring stage higher than 70% of total parasitemia, 2.0% haematocrit) in RPMI-1640, […] and 5 μM hypoxanthine was exposed to drug serial dilutions. Plates were incubated for 24 h at 37 °C, 5% CO2, 5% O2 and 90% N2. After 24 h of incubation, ^3H-hypoxanthine was added and plates were incubated for an additional 24-h period. After that, parasites were harvested on a glass fibre filter using a TOMTEC Cell Harvester 96. Filters were dried and melt-on scintillator sheets were used to determine the incorporation of ^3H-hypoxanthine. Radioactivity was measured using a microbeta counter. Data were normalized using the incorporation of the positive (parasitized RBCs without drug) and negative (same culture with artesunate at 2 μM) controls. All assays were conducted in triplicate using three independently grown cultures, and EC50 values were determined using the XLfit add-in module for Excel (version 2.3.1) from Grafit (version 5.3.1.3), where parameter h is the assay hill slope, x is the compound concentration and y is the inhibition of growth effect. The XLfit equation is: […]
# (§4) Alternatively, a SYBR Green-based proliferation approach was used for the 72-h assay, as previously described. […]
# [2] = system: TM90C2A (DHFR, folate pathway; compared with 3D7); experiment: Cross-resistance EC50 assay, TM90C2A; type: cell-based; details: Plasmodium falciparum, 48 h, read-out: TM90C2A (3D7 Parent) Average EC50
# From the text: as §2, §3
# EC50 values for each strain were compared with those of the corresponding parent strain to determine fold-shift changes and identify resistance. To minimize the cause variance between assays, all comparisons were conducted between strains assayed under identical conditions. A one-way ANOVA followed by a Dunnet's post-test was conducted in GraphPad Prism to identify significant changes between the parent and resistant strain.
# [3] = system: 3D7; experiment: Cross-resistance EC50 assay, 3D7 parent / sensitive strain; type: cell-based; details: Plasmodium falciparum, hypoxanthine 48-hour assay, synchronized parasites, 96-well format
# From the text: as §1, §2, §3, §4
# [4] = system: P. falciparum; design: method as in PMID 26542470; details: known rate of action; cited from earlier work
# [5] = system: P. falciparum; experiment: Rate of killing (parasite viability) assay; type: cell-based, Plasmodium falciparum; details: profile compared with chloroquine, pyrimethamine, atovaquone; 48 h treatment
# Description: To identify whether selection success could be predicted by compound speed of action, and to gain a greater insight into the potential mechanisms of action, assays were performed to test the killing rate (Supplementary Data 1)[33]. To quantify the killing rate, viability time-course profiles for each compound were compared with antimalarials known to have fast (chloroquine), moderate (pyrimethamine) or slow (atovaquone) rate of action. These rates were then compared with other compound characteristics, including cross-resistance profile, selection success, potency and structural characteristics to identify any possible trends. […] One compound's rate of killing, MMV666080, was unidentifiable due to compound availability. No correlation was seen between compound structure and speed of action. Additionally, there was no correlation found between killing rate and compound potency against 3D7, nor between potency and selection success (Supplementary Fig. 2).
# Rate of killing was determined for each compound following a previously described methodology, which uses the invasion of fresh erythrocytes as surrogate of parasite viability. Briefly, parasites were treated with compounds for 48 h. Compound was washed out and fresh-labelled erythrocytes added to the treated parasites. Double stained erythrocytes (RBC label plus parasite DNA label) were quantified and per cent of survival determined.
# [6] = Hepatocyte toxicity; type: cell-based, human; details: human; read-out: HepG2 EC50 (hepatocyte toxicity)
# From the text: (§5) As drugs that eliminate multiple stages of the parasite lifecycle will be critical components in global efforts to eliminate malaria, we were interested in knowing whether the compounds in our study had additional activities against either the liver and/or transmission stages of the parasite lifecycle. To determine this, we first evaluated the compounds in additional phenotypic assays. The first assay was a P. berghei hepatocyte invasion and development assay, which predicts causal prophylactic activity. Hepatocyte toxicity was additionally tested to identify false-positive activity in the liver stage due to host-cell toxicity. Assays were executed in duplicate using a 12-point EC50 curve at starting concentrations of 5 μM or 50 μM (Supplementary Table 1).
# (§6) Liver-stage activity was determined by pretreating hepatic human cells (HepG2) for 2 h with compound in 1,536-well plates infected with freshly dissected P. berghei sporozoites. After 48 h of incubation, the viability of P. berghei exoerythrocytic forms was measured by luminescence reaction light output using BrightGlo (Promega). Varying levels of compound concentration were used (5 μM or 50 μM) due to the stock concentration supplied.
# [7] = system: Stage 5 gametocytes from P. falciparum NF54; experiment: Late-stage (stage V) gametocyte survival assay, MitoTracker; type: cell-based, Plasmodium falciparum; details: Plasmodium falciparum; P. falciparum NF54, 72 h; read-out: Stage 5 Gametocyte EC50
# Description: The second assay was a late-stage (stage V) gametocyte survival assay, which predicts transmission-blocking activity. […] Positive and negative control compounds included puromycin (0.61±0.11 μM) and atovaquone (> 12.50 μM), respectively.
# To test sexual-stage activity, compounds were tested against late-stage gametocytes using a MitoTracker fluorescent-based assay. Specifically, synchronized stage V gametocytes were incubated with compound for 72 h. MitoTracker Red CMXRos (Life Technologies) was added to each well (final concentration: 500 nM) together with saponin to lyse the RBCs. Each plate was then imaged with an Operetta High Content Imaging System (Perkin Elmer) for fluorescence (590–640 nm). Varying levels of compound concentration were used (1.25 μM or 12.5 μM) due to the stock concentration supplied.
# The gametocytocidal activity was measured using high-content image analysis software (Harmony, Perkin Elmer). The readout was based on number of metabolically active gametocytes per well.
# [8] = system: P. berghei exoerythrocytic forms; experiment: Liver-stage P. berghei hepatocyte invasion and development assay (luminescence, HepG2); type: cell-based, Plasmodium berghei; details: Plasmodium berghei, HepG2, text values; read-out: Liver stage EC50 (PfLuc EC50)
# From the text: as §5, §6
# [9] = system: MMV026596-selected cultures (parental line 3D7); experiment: EC50 on cultures selected with MMV026596; type: cell-based, Plasmodium falciparum; details: hypersensitivity of cultures after 100 days of MMV026596 selection
# From the text: While we found an overall lack of pre-existing resistance, analysing the onset of resistance was critical, as compounds resulting in rapid resistance are not ideal for clinical development. We therefore sought to create drug-resistant parasites using a variety of different selection methods. We implemented either a high-dose method or a ramp-up/pulse method for our in vitro selections. Two of the 50 compounds—MMV028895 and MMV665824—were removed from the selection study during experimentation. […] Out of the remaining 48 compounds, resistant parasites were obtained for 23 (Supplementary Data 1). As each selection was performed in triplicate with three independent cultures, we succeeded in generating a total of 66 resistant cultures. Parasites resistant to MMV026596 were not obtained despite 100 days of selection, but the cultures acquired hypersensitivity to mefloquine with a 10-fold reduction in EC50 compared with its parental line, 3D7. For the remaining 24 compounds, acquisition of resistant parasites was unsuccessful despite numerous attempts over an extensive period of time.
compound,measurement,setting,value
COc1ccc(NC(=O)N2CCCCN3[C@H](CO)[C@H](c4ccc(C#Cc5ccccc5)cc4)[C@@H]3C2)cc1 [BRD3444],EC50,[1],31 nM
same,EC50,[2],37 nM
same,EC50,"[3]; strain 3D7 (parent), read-out: 3D7 (PARENT) Average EC50",45 nM
same,EC50,"[3]; strain 3D7-C9-WT (parent of PfATP4 Mut3), read-out: 3D7-C9-WT (PARENT) Average EC50",35 nM
CCN(CC)CCCC(C)Nc1ccnc2cc(Cl)ccc12 (stereo not drawn) [chloroquine],rate of action of comparator antimalarials,[4],fast
Cn1c(C(=O)c2cccc3ccccc23)nc2ccccc21 [MMV665824],Killing Rate,[5],ATQ (slow)
"COc1ccc(C[C@H](N)C(=O)N[C@H]2[C@@H](O)[C@H](n3cnc4c(N(C)C)ncnc43)O[C@@H]2CO)cc1 [puromycin, reference compound]",EC50,[6],254 ± 36.6 nM
same,EC50,[7],610 ± 110 nM
same,EC50,[8],32.7 ± 29.7 nM
OC(c1cc(C(F)(F)F)nc2c(C(F)(F)F)cccc12)C1CCCCN1 (stereo not drawn) [mefloquine],reduction in EC50 compared with parental line 3D7,[9],10 fold
CCc1nc(N)nc(N)c1-c1ccc(Cl)cc1 [pyrimethamine],rate of action of comparator antimalarials,[4],moderate
"O=C1C(O)=C([C@H]2CC[C@H](c3ccc(Cl)cc3)CC2)C(=O)c2ccccc21 [atovaquone, reference compound]",rate of action of comparator antimalarials,[4],slow
same,EC50,[6],7720 ± 1370 nM
same,EC50,[7],> 12500 nM
same,EC50,[8],0.419 ± 0.044 nM

# Source: article PMC4912613, “A broad analysis of resistance development in the malaria parasite” (Nature Communications, 2016)
